This note sets out measurements from ChEMBL document CHEMBL1150718, “Antineoplastic agents, 122. Constituents of Combretum caffrum” (1987).

Structures are written as SMILES. ≈ marks a conversion by molar mass, not a printed value. Calls of active or inactive are those of the source. No cut-off for these calls is given here.

For test [1], the system named is P388. The test is described as follows: Growth inhibition of mouse P388 cells. Format: functional.
Test [2] in a line: Cytotoxicity against rat 9ASK cells at 0.1 ug/ml. The format is functional.
The nature of test [3]: Antimitotic activity against rat 9ASK cells assessed as reversal of astrocyte morphology at 0.1 ug/ml. Format: functional.
Test [4] is described as follows: Antimitotic activity against rat 9ASK cells assessed as reversal of astrocyte morphology at 1 to 100 ug/ml. Format: functional.
Test [5] deals with P388. The test is described as follows: In vivo cytotoxicity against mouse P388 cells at 5 mg/kg. Format: functional, organism-based. Further details: dose 5 mg/kg.

Regarding `COc1cc2c(=O)oc3c(OC)c(O)cc4c(=O)oc(c1OC)c2c34`, the ED50 entry in the test on P388 [1] was “inactive”.
Take `COc1ccc(-c2cc(=O)c3c(O)cc(O)cc3o2)cc1`: in the test on P388 [1], the ED50 result was “inactive”.
Regarding `COc1ccc(C[C@@H](O)c2cc(OC)c(OC)c(OC)c2)cc1O` [COMBRETASTATIN], the Activity was found to be 0% in test [2], 51% in test [3] and 71% in test [4]. In the test on P388 [5], the outcome was Active. For the same compound, in the test on P388 [1] (read-out: ED50 (the source's name)), the EC50 is 0.011 µg/mL (≈ 0.0329 µM).
